From patent US20240174611A1 (Rappta Therapeutics Oy, priority 2021, published 2024)

Columns and labels:
[1] = test system: HCC1937 cells; experiment: HCC1937 cell viability assay (MTS); assay type: cell-based; conditions: Homo sapiens, HCC1937 cell line (footnote a), 48 hours treatment
Procedure: HCC1937 cell line HCC1937 cells are plated in a 96 well plate format at a density of 10,000 cells per well. After incubation overnight, cells are treated with compounds 1-100 at following concentrations: 80, 40, 20, 10, 5, 2.5, 1.25 μM. Compound concentrations are prepared in RPMI via serial dilutions from a starting stock of 80 mM. 48 hours after compound treatment, cell viability is assessed using the Promega CellTiter 96 aqueous one proliferation assay (Promega G3582, MTS assay) according to manufacturer's protocol.
The cell viability data was analyzed with GraphPad Prism software. The values were log transformed and analyzed with non-linear regression (curve-fit) using log(inhibitor) vs. response—variable slope (four parameters) and constraining the bottom to equal zero. Unless otherwise indicated, the GI50 values provided in Table 35 correspond to the LNCaP cell viability assays.

[2] = test system: LNCaP cells; experiment: LNCaP cell viability assay (MTS); assay type: cell-based; conditions: Homo sapiens, LNCaP, 48 h, LNCaP cell line, 48 hours treatment
In short: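 LNCaP cells were treated 24 h after plating with compound at 1–80 μM, and relative cell number was read by MTS after 48 h. GI50 came from a four-parameter log(inhibitor) vs. response fit with the bottom constrained to zero.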

Question: `O=S(=O)(NC1(c2ccc(F)cn2)CCNCC1)c1ccc(OC(F)(F)F)cc1` [Compound 65, N-(4-(5-fluoropyridin-2-yl)piperidin-4-yl)-4-(trifluoromethoxy)benzenesulfonamide] was tested. Which GI50 [1] did it give?
Answer: Its GI50 is 75.1 µM.

Question: For `N=S(=O)(NC1(c2ccc(F)cc2)CCNC1)c1ccc(OC(F)(F)F)cc1` (stereo not drawn) [Compound 84, N-(3-(4-fluorophenyl)pyrrolidin-3-yl)-4-(trifluoromethoxy)benzenesulfonimidamide], which GI50 [1] is on record?
Answer: The GI50 was 75.1 µM.

Question: For `O=S(=O)(NC1(c2cc(F)ccc2F)CCNCC1)c1ccc(OC(F)(F)F)cc1` [Compound 88, N-(4-(2,5-difluorophenyl)piperidin-4-yl)-4-(trifluoromethoxy)benzenesulfonamide], which GI50 [2] is on record?
Answer: The GI50 was 36.5 µM.

Question: Which GI50 [1] does the source give for `Nc1cc(S(=O)(=O)NC2(c3ccc(F)cc3)CCNC2)ccc1OC(F)(F)F` (stereo not drawn) [Compound 92, 3-amino-N-(3-(4-fluorophenyl)pyrrolidin-3-yl)-4-(trifluoromethoxy)benzenesulfonamide] here?
Answer: Its GI50 is 50.3 µM.

Question: With `N=S(=O)(NC1(c2ccc(Cl)cc2)CCNC1)c1ccc(OC(F)(F)F)cc1` (stereo not drawn) [Compound 63, N-(3-(4-chlorophenyl)pyrrolidin-3-yl)-4-(trifluoromethoxy)benzenesulfonimidamide] as the compound, how does the GI50 [2] read?
Answer: The GI50 was 38.4 µM.

Question: For `O=S(=O)(NC1(c2ccc(Cl)c(F)c2)CCNC1)c1ccc(OC(F)(F)F)cc1` (stereo not drawn) [Compound 52, N-(3-(4-chloro-3-fluorophenyl)pyrrolidin-3-yl)-4-(trifluoromethoxy)benzenesulfonamide], which GI50 [2] is on record?
Answer: The GI50 was 23.4 µM.

Question: `O=S(=O)(NC1CCc2c(Cl)cc(Cl)cc21)c1ccc(OC(F)(F)F)cc1` (stereo not drawn) [Compound 11, N-(4,6-dichloro-2,3-dihydro-1H-inden-1-yl)-4-(trifluoromethoxy)benzene-sulfonamide] was tested. Which GI50 [2] did it give?
Answer: Its GI50 is 44.2 µM.

Question: With `O=C1C(NS(=O)(=O)c2ccc(OC(F)(F)F)cc2)CCCN1Cc1cccc(C(F)(F)F)c1` (stereo not drawn) [Compound 16] as the compound, how does the GI50 [2] read?
Answer: The GI50 was 34.4 µM.

Question: `O=S(=O)(NC1(c2ccc(F)c(F)c2)CCNCC1)c1ccc(OC(F)(F)F)cc1` [Compound 82, N-(4-(3,4-difluorophenyl)piperidin-4-yl)-4-(trifluoromethoxy)benzenesulfonamide] was tested. Which GI50 [2] did it give?
Answer: The GI50 was 14.4 µM.

Question: With `CC(C)Oc1ccc(S(=O)(=O)NC2(c3ccc(F)cc3)CCNC2)cc1` (stereo not drawn) [Compound 78, N-(3-(4-fluorophenyl)pyrrolidin-3-yl)-4-isopropoxybenzenesulfonamide] as the compound, how does the GI50 [2] read?
Answer: Its GI50 is 70.5 µM.

Question: `O=S(=O)(N[C@@]1(c2ccc(Cl)cc2)CNC[C@@H]1F)c1ccc(OC(F)(F)F)cc1` (racemic) [Compound 79, N-((3S,4S)-3-(4-chlorophenyl)-4-fluoropyrrolidin-3-yl)-4-(trifluoromethoxy)benzenesulfonamide] was tested. Which GI50 [2] did it give?
Answer: The GI50 was 55.8 µM.

Question: For `CC(C)(C)OC(=O)N1CCC([C@@H]2C[C@H]2NS(=O)(=O)c2ccc(OC(F)(F)F)cc2)CC1` (racemic) [Compound 24], which GI50 [2] is on record?
Answer: Its GI50 is 16 µM.

Question: With `CN(C1(c2ccc(Cl)cc2)CCNC1)S(=O)(=O)c1ccc(OC(F)(F)F)cc1` (stereo not drawn) [Compound 85, N-(3-(4-chlorophenyl)pyrrolidin-3-yl)-N-methyl-4-(trifluoromethoxy)benzenesulfonamide] as the compound, how does the GI50 [2] read?
Answer: Its GI50 is 33.5 µM.

Question: How did the GI50 [2] turn out when `O=S(=O)(N[C@@H]1CCN(C2CC2)[C@H]1c1ccc(F)c(F)c1)c1ccc(OC(F)(F)F)cc1` (racemic) [Compound 34] was run?
Answer: Its GI50 is 33 µM.

Question: For `O=S(=O)(NC1CCOc2c(F)ccc(F)c21)c1ccc(OC(F)(F)F)cc1` (stereo not drawn) [Compound 10, N-(5,8-difluorochroman-4-yl)-4-(trifluoromethoxy)benzene-sulfonamide], which GI50 [2] is on record?
Answer: Its GI50 is 67.5 µM.

Question: For `O=S(=O)(N[C@@H]1C[C@H]1c1ccc(Cl)cc1)c1ccc(OC(F)(F)F)cc1` (racemic) [Compound 42, rac N-((1R,2S)-2-(4-chlorophenyl)cyclopropyl)-4-(trifluoromethoxy)benzenesulfonamide], which GI50 [2] is on record?
Answer: The GI50 was 67.2 µM.

Question: Which GI50 [1] does the source give for `CC(C)CCN1CCC(NS(=O)(=O)c2ccc(OC(F)(F)F)cc2)(c2ccc(Cl)cc2)C1` (stereo not drawn) [Compound 76, N-(3-(4-chlorophenyl)-1-isopentylpyrrolidin-3-yl)-4-(trifluoromethoxy)benzenesulfonamide] here?
Answer: Its GI50 is 19.9 µM.

Question: How did the GI50 [2] turn out when `Nc1cc(S(=O)(=O)NC2(c3ccc(Cl)cc3)CCNCC2)ccc1OC(F)(F)F` [Compound 99, 3-amino-N-(4-(4-chlorophenyl)piperidin-4-yl)-4-(trifluoromethoxy)benzenesulfonamide] was run?
Answer: The GI50 was 46.1 µM.
